{"source": "paper PMC10824102", "about": "“Identification of small molecule inhibitors of G3BP-driven stress granule formation” (The Journal of Cell Biology, 2024)", "assay_type_in_all_cases": "cell-based", "key": {"[1]": {"system": "stress granule formation in HeLa cells stably expressing G3BP1-GFP", "test": "Preincubation, arsenite-induced stress granule formation, live cell imaging in HeLa", "conditions": "Homo sapiens, 20 min pretreatment, 250 μM NaAsO2, read-out: inhibition of stress granule formation compared with inactive enantiomer", "method": "(§1) For preincubation of compounds, U2OS or HeLa cells stably expressing G3BP1-GFP or CRISPR-modified cells expressing TDP-43-GFP/G3BP1-GFP were seeded into eight-well Lab-Tek chambered cover glass (Nunc). At least 20 min prior to the experiment, 1 ml FluoroBrite DMEM media (Gibco) supplemented with 10% FBS and 4 mM L-glutamine was combined with 0.1% DMSO or G3I compound (5, 10, or 50 μM). This solution was vortexed for 5 s, added to the cells at 250 μl per well, and left to incubate on the microscope for 20 min. Conditions were maintained at 37°C and 5% CO2 using a Bold Line Cage Incubator (Okolab) and an objective heater (Bioptechs). During this incubation time, 5 xy fields were stored per condition, with each field having ∼20–30 cells within it. After the 20-min incubation, 250 μl of 500 μM or 1 mM (2×) sodium arsenite (Sigma-Aldrich) diluted in the FluoroBrite media with an appropriate amount of G3I compound or DMSO was added to the sample. Imaging began immediately after, with images at each xy field being taken every 1 min. For heat shock experiments, U2OS G3BP1-GFP-expressing cells were seeded into a 35-mm glass bottom dish (MatTek). Prior to the experiment, 1.5 ml FluoroBrite DMEM media (Gibco) supplemented with 10% FBS and 4 mM L-glutamine was combined with 0.1% DMSO or 50 μM G3I compound. The sample was incubated on the environmentally controlled microscope for 20 min. […]"}, "[2]": {"system": "preformed stress granules in U2OS cells stably expressing G3BP1-GFP", "test": "Post-addition: dissolution of heat stress-induced stress granules", "conditions": "for immediate reduction in stress granule area (preformed granules): 50 μM added after 25 min of 43°C heat stress; for stress granule disassembly during recovery at 37°C: 50 μM, compared with cells treated with inactive enantiomers", "method": "For post-addition of compounds, U2OS cells stably expressing G3BP1-GFP were seeded into eight-well Lab-Tek chambered cover glass (Nunc) for sodium arsenite experiments or 35-mm glass-bottom dishes (MatTek) for heat shock experiments. Immediately prior to the experiment, media was replaced with FluoroBrite DMEM media (Gibco) in each well supplemented with 10% FBS and 4 mM L-glutamine; for sodium arsenite experiments, arsenite was added at a final concentration of 250 μM. Cells were then placed on a microscope on which 37°C temperature and 5% CO2 were maintained using a Bold Line Cage Incubator (Okolab) and an objective heater (Bioptechs), and 5–10 xy fields were stored. For sodium arsenite experiments, acquisition began immediately after finding all xy positions, 4 min after the addition of sodium arsenite. 30 min after arsenite was added, 250 μl FluoroBrite DMEM with 250 μM sodium arsenite and 0.1 mM (2×) G3I compound (vortexed for 5 s) was added to the sample. For heat shock experiments, each xy position was imaged every minute. At 2 min into the acquisition, the objective heater was ramped to 43°C. Following this, 250 μM (5×) G3I compound was prepared in FluoroBrite DMEM and vortexed for 15 s. This solution was kept on a 47°C heater near the microscope along with a pipette tip. At 27 min into the acquisition (25 min into heat shock), 250 μl of the prewarmed solution was added to the cells using the prewarmed tip. We note that the solution was heated to 47°C to compensate for the rapid heat loss when adding the solution. At 32 min into the acquisition (30 min heat shock), the heat was ramped down to 37°C. All imaging was acquired on a Yokogawa CSU W1 spinning disk attached to a Nikon Ti2 eclipse with a Photometrics Prime 95B camera using Nikon Elements software (v5.20.00 to v5.21.02). Imaging was performed through a Nikon Plan Apo 60× 1.40 NA oil objective with Immersol 518 F (refractive index 1.518; Zeiss), and Perfect Focus 2.0 (Nikon) was engaged for all captures.\nAutomated granule detection and measurement were performed using a combination of ilastik and CellProfiler software. Briefly, ND2 multipoint timelapse files were resaved as image sequences in Fiji with the Bio-Formats plugin so that individual frames of the movies could be treated as individual images for analysis. From there, pixel classification in ilastik was used to segment both stress granules and the total cellular area within the field using the G3BP1-GFP channel via machine learning. These segmentations, along with the original G3BP1-GFP image, were input into CellProfiler, where objects were defined using the masks from ilastik."}, "[3]": {"system": "stress granule formation in U2OS cells stably expressing G3BP1-GFP", "test": "Preincubation, heat shock-induced stress granule formation in U2OS", "conditions": "50 μM, 20 min pretreatment, 43°C heat shock, 15 min post heat shock", "method": "as §1"}}}
{"compound": "COCCC(NC(=O)C(C)NC(=O)C(NC(=O)C(NC(=O)C(F)CC(C)(C)C)C(C)(C)O)C(C)c1ccccc1)C(=O)N(C)Cc1ccccc1", "note": "(centres unmarked) [G3Ia]", "values": [{"measurement": "inhibition at 50 µM", "setting": "[1]", "result": "~72", "unit": "%"}, {"measurement": "immediate reduction in stress granule area (preformed granules)", "setting": "[2]", "result": "~54", "unit": "%"}, {"measurement": "stress granule disassembly during recovery at 37°C", "setting": "[2]", "result": "completed disassembly faster"}, {"measurement": "reduction of stress granule formation compared with inactive enantiomer", "setting": "[3]", "result": "~79", "unit": "%"}]}
{"compound": "CC(NC(=O)C(NC(=O)C(NC(=O)CCC(C)(C)C)C(C)(C)O)C(C)c1ccccc1)C(=O)N1CCCC1c1ccccc1", "note": "(centres unmarked) [G3Ib]", "values": [{"measurement": "inhibition at 50 µM", "setting": "[1]", "result": "~82", "unit": "%"}, {"measurement": "immediate reduction in stress granule area (preformed granules)", "setting": "[2]", "result": "~68", "unit": "%"}, {"measurement": "stress granule disassembly during recovery at 37°C", "setting": "[2]", "result": "completed disassembly faster"}, {"measurement": "reduction of stress granule formation compared with inactive enantiomer", "setting": "[3]", "result": "~82", "unit": "%"}]}
